From patent US9573961B2, “Inhibitors of the renal outer medullary potassium channel” (Merck Sharp & Dohme Corp., priority 2012, dated 2017)
Like-named read-outs stand apart in the source and are kept apart here.

How the values were obtained:
hROMK (hKir1.1) = hROMK (hKir1.1) (Homo sapiens (Human), UniProt P48048); experiment: Thallium Flux Assay (ROMK channel functional thallium flux, FLIPR-Tetra); assay type: cell-based; conditions: HEK293 cells stably expressing hROMK (hKir1.1); read-out: Thallium Flux IC50
hROMK (hKir1.1), sequence (P48048 whole entry): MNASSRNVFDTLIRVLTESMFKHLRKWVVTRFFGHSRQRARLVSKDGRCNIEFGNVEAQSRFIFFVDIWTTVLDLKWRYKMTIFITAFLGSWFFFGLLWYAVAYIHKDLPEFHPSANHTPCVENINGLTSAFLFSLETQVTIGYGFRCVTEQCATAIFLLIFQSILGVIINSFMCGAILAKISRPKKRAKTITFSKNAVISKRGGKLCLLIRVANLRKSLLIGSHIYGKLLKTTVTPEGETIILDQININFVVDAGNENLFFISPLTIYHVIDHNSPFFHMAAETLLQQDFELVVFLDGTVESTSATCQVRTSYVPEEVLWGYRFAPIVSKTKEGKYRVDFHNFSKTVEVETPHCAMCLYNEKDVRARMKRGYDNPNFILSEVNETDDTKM
Experimental: Cell Culture Conditions—HEK293 cells stably expressing hROMK (hKir1.1) were grown at 37° C. in a 10% CO2 humidified incubator in complete growth media: Dulbecco's Modified Eagle Medium supplemented with non-essential amino acids, Penicillin/Streptomycin/Glutamine, G418 and FBS. At >80% confluency, aspirate the media from the flask and rinse with 10 mL Calcium/Magnesium-free PBS. […] To dislodge the cell, gently bang the side of the flask with your hand. Triturate the cells completely and then transfer the cells to 25 mL complete media. Centrifuge at 1,500 rpm for 6 min followed by resuspension in complete growth media and determine cell concentration. […] Under ideal growth conditions and appropriate tissue culture practices, this cell line is stable for 40-45 passages.
FluxOR Kit Components (Invitrogen F10017) • FluxOR™ Reagent (Component A) • FluxOR™ Assay Buffer (Component B)—10× Concentrate • PowerLoad™ Concentrate (Component C)—100× Concentrate • Probenecid (Component D)—Lyophilized sample is kept at −20° C. Water soluble, 100× after solubilization in 1 mL water. […] Store at 4° C. • Thallium sulfate (Tl2SO4) Concentrate (Component G)—50 mM in water. Store at 4° C. • DMSO (dimethyl sulfoxide, Component H)—1 mL (100%)
Can be stored at room temperature • Stimulant Buffer (prepared at 5× final concentration in 1× FluxOR™ Chloride-Free Buffer): 7.5 mM Thallium sulfate and 0.75 mM Potassium sulfate (to give a final assay concentration of 3 mM Thallium/0.3 mM Potassium). Store at 4° C. when not in use. If kept sterile, this solution is good for months.
Assay Protocol—The ROMK channel functional thallium flux assay is performed in 384 wells, using the FLIPR-Tetra instrument. HEK-hKir1.1 cells are seeded in Poly-D-Lysine microplates and kept in a 37° C.-10% CO2 incubator overnight. On the day of the experiment, the growth media is replaced with the FluxOR™ reagent loading buffer and incubated, protected from light, at ambient temperature (23-25° C.) for 90 min. The loading buffer is replaced with assay buffer±test compound followed by 30 min incubation at ambient temperature, where the Thallium/Potassium stimulant is added to the microplate.
Step Protocol • 1. Seed HEK-hKir1.1 cells (50 μl at 20,000 cells/well) in 384-well PDL coated Microplates • 2. Allow cells to adhere overnight in humidified 37° C./10% CO2 incubator • 3. Completely remove cell growth media from microplate and replace with 25 μl loading buffer • 4. Incubate Microplate at room temperature, protected form light, for 90 min • 5. Remove loading buffer and replace with 25 μl 1× Assay Buffer±test compound. • 6. Incubate microplate at room temperature, protected from light, for 30 min • 7. […] Excitation=400 nm, Emission=460 & 580 nm. Collect data for ˜10 min.
Data Calculation—The fluorescence intensity of wells containing 3 μM of a standard control ROMK inhibitor of the present invention is used to define the ROMK-sensitive component of thallium flux. Fluorescence in the presence of test compounds is normalized to control values to provide % fluorescence change.

Kir1.1 (ROMK1) = Kir1.1 (ROMK1) (Homo sapiens (Human), UniProt P48048); experiment: Electrophysiology Assay (whole cell voltage clamp, IonWorks Quattro); assay type: cell-based; conditions: block during voltage step to 0 mV
Kir1.1 (ROMK1), sequence (P48048 whole entry): as above
Experimental: Chinese hamster ovary cells stably expressing Kir1.1 channels were maintained in T-75 flasks in cell culture media in a humidified 10% CO2 incubator at 37° C. Prior to an experiment, Kir1.1 expression was induced by overnight incubation with 1 mM sodium butyrate. […] After centrifugation, the cell pellet was resuspended in approximately 4.0 mL of bath solution and placed in the IonWorks instrument. The intracellular solution consisted of (in mM): 80 K gluconate, 40 KCl, 20 KF, 3.2 MgCl2, 3 EGTA, 5 Hepes, pH 7.4. Electrical access to the cytoplasm was achieved by perforation in 0.13 mg/mL amphotericin B for 4 min. […] Voltage protocols and current recordings were performed using the IonWorks HT software/hardware system. Currents were sampled at 1 kHz. No correction for liquid junction potentials was used. The test pulse, consisting of a 100 ms step to 0 mV from a holding potential of −70 mV, followed by a 100 ms voltage ramp from −70 mV to +70 mV, was applied before and after a 6 min compound incubation period. Test compounds were prepared by diluting DMSO stock solutions into the bath solution at 3× the final concentration and placed in the instrument in 96-well polypropylene plates. Current amplitudes were measured using the IonWorks software.

[1] = Chinese hamster ovary cells stably expressing Kir1.1, read-out: Electrophysiology IC50
[2] = Electrophysiology IC50, Chinese hamster ovary cells stably expressing Kir1.1

Structure (SMILES) | IC50 (hROMK (hKir1.1)) | IC50 (Kir1.1 (ROMK1); [1]) | IC50 (Kir1.1 (ROMK1); [2])
COc1cc([C@H]2CN3CCN(C(=O)C4CCc5cc(-n6cnnn6)ccc54)C[C@H]3CO2)ccc1C#N (mixture of isomers) [Example 66, 2-methoxy-4-[(3S,9aS)-8-{[5-(1H-tetrazol-1-yl)-2,3-dihydro-1H-inden-1-yl]carbonyl}octahydropyrazino[2,1-c][1,4]oxazin-3-yl]benzonitrile] | 370 nM | 490 nM | –
Cc1c([C@@H]2CN3CCN(C(=O)C4CCc5cc(-n6cnnn6)ccc54)C[C@H]3CO2)ccc(F)c1C#N (mixture of isomers) [Example 2A, 3-((3R,9aS)-8-(5-(1H-tetrazol-1-yl)-2,3-dihydro-1H-indene-1-carbonyl)octahydropyrazino[2,1-c][1,4]oxazin-3-yl)-6-fluoro-2-methylbenzonitrile] | 170 nM | 140 nM | –
Cc1c([C@@H]2CN3CCN(C(=O)C4CCc5cc(-n6cnnn6)ccc54)C[C@H]3CO2)ccc(F)c1C#N (mixture of isomers) [Example 2B, 3-((3R,9aS)-8-(5-(1H-tetrazol-1-yl)-2,3-dihydro-1H-indene-1-carbonyl)octahydropyrazino[2,1-c][1,4]oxazin-3-yl)-6-fluoro-2-methylbenzonitrile] | 290 nM | 150 nM | –
O=C(C1CCc2cc(-n3cnnn3)ccc21)N1CCN2C[C@@H](c3cccc(-n4cnnn4)c3)OC[C@@H]2C1 (single isomer, unassigned) [Example 80] | 130 nM | 280 nM | –
Cc1c([C@H]2CN3CCN(C(=O)CCc4cccc(-n5cnnn5)c4)CC3CO2)ccc(F)c1C#N (stereo in doubt) [Example 73, 6-fluoro-2-methyl-3-[(3S,9aS)-8-{3-[3-(1H-tetrazol-1-yl)phenyl]propanoyl}octahydropyrazino[2,1-c][1,4]oxazin-3-yl]benzonitrile] | 140 nM | – | –
Cc1c([C@H]2CN3CCN(C(=O)Cc4ccc(-n5cnnn5)cc4)C[C@H]3CO2)ccc2c1COC2=O [Example 1B, 4-methyl-5-[(3S,9aS)-8-{[4-(1H-tetrazol-1-yl)phenyl]acetyl}octahydropyrazino[2,1-c][1,4]oxazin-3-yl]-2-benzofuran-1(3H)-one] | – | – | 330 nM
N#Cc1cc([C@H]2CN3CCN(C(=O)C4CCc5cc(-n6cnnn6)ccc54)C[C@H]3CO2)ccc1F (stereo partly drawn) [Example 3, 2-fluoro-5-[(3S,9aS)-8-{[5-(1H-tetrazol-1-yl)-2,3-dihydro-1H-inden-1-yl]carbonyl}octahydropyrazino[2,1-c][1,4]oxazin-3-yl]benzonitrile] | – | 180 nM | –
N#Cc1cc([C@@H]2CN3CCN(C(=O)C4CCc5cc(-n6cnnn6)ccc54)C[C@H]3CO2)ccc1F (stereo partly drawn) [Example 4, 2-fluoro-5-[(3R,9aS)-8-{[5-(1H-tetrazol-1-yl)-2,3-dihydro-1H-inden-1-yl]carbonyl}octahydropyrazino[2,1-c][1,4]oxazin-3-yl]benzonitrile] | – | 190 nM | –
N#Cc1cc([C@@H]2CN3CCN(C(=O)Cc4cc(F)c(C#N)cc4F)C[C@H]3CO2)ccc1F [Example 5, 4-{2-[(3R,9aS)-3-(3-cyano-4-fluorophenyl)hexahydropyrazino[2,1-c][1,4]oxazin-8(1H)-yl]-2-oxoethyl}-2,5-difluorobenzonitrile] | – | – | 120 nM
COc1cc(CC(=O)N2CCN3C[C@@H](c4ccc(F)c(C#N)c4)OC[C@@H]3C2)ccc1C#N [Example 6] | – | – | 160 nM
O=C1OCc2cc([C@H]3CN4CCN(C(=O)Cc5ccc(-n6cnnn6)cc5)C[C@H]4CO3)ccc21 [Example 7, 5-[(3S,9aS)-8-{[4-(1H-tetrazol-1-yl)phenyl]acetyl}octahydropyrazino[2,1-c][1,4]oxazin-3-yl]-2-benzofuran-1(3H)-one] | – | 170 nM | –
O=C1OCc2cc([C@@H]3CN4CCN(C(=O)Cc5ccc(-n6cnnn6)cc5)C[C@H]4CO3)ccc21 [Example 8, 5-[(3R,9aS)-8-{[4-(1H-tetrazol-1-yl)phenyl]acetyl}octahydropyrazino[2,1-c][1,4]oxazin-3-yl]-2-benzofuran-1(3H)-one] | – | 140 nM | –
COc1cc(CC(=O)N2CCN3C[C@H](c4ccc5c(c4)COC5=O)OC[C@@H]3C2)c(F)cc1C#N [Example 9, 5-fluoro-2-methoxy-4-{2-oxo-2-[(3S,9aS)-3-(1-oxo-1,3-dihydro-2-benzofuran-5-yl)hexahydropyrazino[2,1-c][1,4]oxazin-8(1H)-yl]ethyl}benzonitrile] | – | 140 nM | –
O=C1OCc2cc([C@H]3CN4CCN(C(=O)C5CCc6cc(-n7cnnn7)ccc65)C[C@H]4CO3)ccc21 (stereo partly drawn) [Example 11, 5-[(3S,9aS)-8-{[5-(1H-tetrazol-1-yl)-2,3-dihydro-1H-inden-1-yl]carbonyl}octahydropyrazino[2,1-c][1,4]oxazin-3-yl]-2-benzofuran-1(3H)-one] | – | 340 nM | –
O=C1OCc2cc([C@@H]3CN4CCN(C(=O)C5CCc6cc(-n7cnnn7)ccc65)C[C@H]4CO3)ccc21 (stereo partly drawn) [Example 12, 5-[(3R,9aS)-8-{[5-(1H-tetrazol-1-yl)-2,3-dihydro-1H-inden-1-yl]carbonyl}octahydropyrazino[2,1-c][1,4]oxazin-3-yl]-2-benzofuran-1(3H)-one] | – | 250 nM | –
COc1cc(CC(=O)N2CCN3C[C@H](c4ccc5c(c4C)COC5=O)OC[C@@H]3C2)c(F)cc1C#N [Example 16, 5-fluoro-2-methoxy-4-{2-[(3S,9aS)-3-(4-methyl-1-oxo-1,3-dihydro-2-benzofuran-5-yl)hexahydropyrazino[2,1-c][1,4]oxazin-8(1H)-yl]-2-oxoethyl}benzonitrile] | – | 180 nM | –
COc1cc(CC(=O)N2CCN3C[C@@H](c4ccc5c(c4C)COC5=O)OC[C@@H]3C2)c(F)cc1C#N [Example 17, 5-fluoro-2-methoxy-4-{2-[(3R,9aS)-3-(4-methyl-1-oxo-1,3-dihydro-2-benzofuran-5-yl)hexahydropyrazino[2,1-c][1,4]oxazin-8(1H)-yl]-2-oxoethyl}benzonitrile] | – | 160 nM | –
Cc1c([C@H]2CN3CCN(C(=O)CCc4cccc(-n5cnnn5)c4)C[C@H]3CO2)ccc2c1COC2=O [Example 71, 4-methyl-5-[(3S,9aS)-8-{3-[3-(1H-tetrazol-1-yl)phenyl]propanoyl}octahydropyrazino[2,1-c][1,4]oxazin-3-yl]-2-benzofuran-1(3H)-one] | 490 nM | – | –
Cc1c([C@@H]2CN3CCN(C(=O)CCc4cccc(-n5cnnn5)c4)C[C@H]3CO2)ccc(F)c1C#N [Example 72, 6-fluoro-2-methyl-3-[(3R,9aS)-8-{3-[3-(1H-tetrazol-1-yl)phenyl]propanoyl}octahydropyrazino[2,1-c][1,4]oxazin-3-yl]benzonitrile] | 270 nM | – | –
Cc1c([C@H]2CN3CCN(C(=O)C4Cc5ccc(-n6cnnn6)cc5C4)C[C@H]3CO2)ccc(F)c1C#N (stereo partly drawn) [Example 74, 6-fluoro-2-methyl-3-[(3S,9aS)-8-{[5-(1H-tetrazol-1-yl)-2,3-dihydro-1H-inden-2-yl]carbonyl}octahydropyrazino[2,1-c][1,4]oxazin-3-yl]benzonitrile] | – | 160 nM | –
